The record followed here is patent US5556886A, “HIV-inhibiting benzeneacetamide derivatives” (Janssen Pharmaceutica N.V., priority 1990, dated 1996).

Values after ≈ are worked out from the molar mass of the structure shown. Some results are limits rather than exact numbers.

One series can be described thus: in vitro. Format: cell-based. As to conditions: human, mt-4 cells. The procedure: (§1) A rapid, sensitive and automated assay procedure was used for the in-vitro evaluation of anti-HIV agents. An […] T4-cell line, MT-4, which was previously shown (Koyanagi et al., Int. J. Cancer, 36, 445-451, 1985) to be highly susceptible to and permissive for HIV infection, served as the target cell line. Inhibition of the HIV-induced cytopathic effect was used as the end point. The viability of both HIV-and mock-infected cells was assessed spectrophotometrically via the in-situ reduction of 3-(4,5-dimethylthiazol-2-yl)-2,5-diphenyltetrazolium bromide (MTT). The 50% cytotoxic dose (CD50 in μg/ml) was defined as the concentration of compound that reduced the absorbance of the mock-infectedcontrol sample by 50%. The percent protection achieved by the compound in HIV-infected cells was calculated by the following formula: [formula] whereby (ODT)HIV is the optical density measured with a given concentration of the test compound in HIV-infected cells; (ODC)HIV is the optical density measured for the control untreated HIV-infected cells; (ODC)MOCK is the optical density measured for the control untreated mock-infected cells; all optical density values were determined at 540 nm. The dose achieving 50% protection according to the above formula was defined as the 50% effective dose (ED50 in μg/ml). The ratio of CD50 to ED50 was defined as the selectivity index (SI).

The test system of the next series is HIV-1. Briefly: in-vitro anti-HIV assay: inhibition of HIV-induced cytopathic effect in MT-4 cells (MTT). The series is classed as cell-based. As to conditions: for SI (selectivity index, ratio of CD50 to ED50): CD50/ED50, MT-4 cells; for EC50: Human immunodeficiency virus 1, MT4, HIV-infected MT-4 cells, cytopathic effect, MTT, 540 nm, read-out: ED50 (dose achieving 50% protection). The procedure: as §1
For orientation: Cytopathic effects are the visible damage that an infection or toxin causes in cultured cells.

Molecule `CC(=O)c1ccccc1NC(C(N)=O)c1c(Cl)cccc1Cl` (racemic) [Compound 22, (±)-α[(2-acetylphenyl)amino]-2,6-dichlorobenzeneacetamide] gave a CC50 in the series “in vitro” of 35 µg/mL (≈ 104 µM). Also, in the series on HIV-1, the “SI (selectivity index, ratio of CD50 to ED50)” value is ~ 2700 and the EC50 came out at 0.013 µg/mL (≈ 0.0386 µM).

Consider `CC(=O)c1ccccc1NC(C(N)=O)c1c(Cl)cccc1Cl` (single isomer, unassigned) [Compound 23, (-)-α-[(2-acetylphenyl)amino]-2,6-dichlorobenzeneacetamide], for which the midpoint of cytotoxicity in the series “in vitro”, the CC50, lay at 20 µg/mL (≈ 59.3 µM). Moreover, in the series with HIV-1, the “SI (selectivity index, ratio of CD50 to ED50)” value is reported as ~ 3000 and the EC50 was 0.0066 µg/mL (≈ 0.0196 µM).

For `Cc1ccc([N+](=O)[O-])c(NC(C(N)=O)c2c(Cl)cccc2Cl)c1` (single isomer, unassigned) [Compound 29, (-)-α-[(5-methyl-2-nitrophenyl)amino]-2,6-dichlorobenzeneacetamide], it took 5 µg/mL (≈ 14.1 µM) to reach half-maximal cytotoxicity in the series “in vitro” (CC50). In the series on HIV-1, the “SI (selectivity index, ratio of CD50 to ED50)” value was ~ 1550 and the EC50 is 0.0032 µg/mL (≈ 0.00903 µM).

`NC(=O)C(Nc1ccccc1[N+](=O)[O-])c1c(Cl)cccc1Cl` (single isomer, unassigned; (-)) [Compound 25, (-)-2,6-dichloro-α-[(2-nitrophenyl)amino]benzeneacetamide] gave a CC50 in “in vitro” of 29 µg/mL (≈ 85.3 µM). In the series with HIV-1, the “SI (selectivity index, ratio of CD50 to ED50)” value is listed as ~ 1600 and the EC50 worked out at 0.018 µg/mL (≈ 0.0529 µM).

For the molecule `NC(=O)C(Nc1ccccc1[N+](=O)[O-])c1c(Cl)cccc1Cl` (stereo not drawn) [Compound 15, 2-(2,6-dichlorophenyl)-2-[(2-nitrophenyl)amino]acetamide], the CC50 in the series “in vitro” was determined as 20 µg/mL (≈ 58.8 µM). In addition, in the series with HIV-1, the “SI (selectivity index, ratio of CD50 to ED50)” value is recorded as ~ 1000 and the EC50 came to 0.02 µg/mL (≈ 0.0588 µM).

In “in vitro”, `Cc1cc(NC(C(N)=O)c2c(Cl)cccc2Cl)c([N+](=O)[O-])cc1C` (stereo not drawn) [Compound 24] displayed a CC50 of 160 µg/mL (≈ 435 µM). For the same molecule, in the series on HIV-1, the “SI (selectivity index, ratio of CD50 to ED50)” value is ~ 2100 and the EC50 came to 0.077 µg/mL (≈ 0.209 µM).

The molecule `Cc1ccc([N+](=O)[O-])c(NC(C(N)=O)c2c(Cl)cccc2Cl)c1` (stereo not drawn) [Compound 26] displayed a CC50 in “in vitro” of more than 250 µg/mL. Further, in the series on HIV-1, the “SI (selectivity index, ratio of CD50 to ED50)” value was not below 4400 and the EC50 stood at 0.057 µg/mL (≈ 0.161 µM).

Molecule `Cc1cc(C)c([N+](=O)[O-])c(NC(C(N)=O)c2c(Cl)cccc2Cl)c1` (stereo not drawn) [Compound 27] came in with a CC50 in “in vitro” of 5 µg/mL (≈ 13.6 µM). In addition, in the series on HIV-1, the “SI (selectivity index, ratio of CD50 to ED50)” value is listed as ~ 100 and the EC50 came to 0.049 µg/mL (≈ 0.133 µM).

For `Cc1cc(NC(C(N)=O)c2c(Cl)ccc(Cl)c2Cl)c([N+](=O)[O-])cc1C` (stereo not drawn) [Compound 28], half-maximal cytotoxicity in “in vitro” (CC50) was put at 10 µg/mL (≈ 24.8 µM). Besides, in the series with HIV-1, the “SI (selectivity index, ratio of CD50 to ED50)” value is recorded as ~ 140 and the EC50 came to 0.07 µg/mL (≈ 0.174 µM).

For the molecule `CC(=O)c1ccc(Cl)cc1NC(C(N)=O)c1c(Cl)cccc1Cl` (stereo not drawn) [Compound 30, α-[(2-acetyl-5-chlorophenyl)amino]-2,6-dichlorobenzeneacetamide], the CC50 in “in vitro” turned out to be 200 µg/mL (≈ 538 µM). Moreover, in the series on HIV-1, the “SI (selectivity index, ratio of CD50 to ED50)” value is given as ~ 18000 and the EC50 came to 0.011 µg/mL (≈ 0.0296 µM).

By CC50 is commonly meant the concentration giving 50% cytotoxicity.
